Data set [1] has as its system male Wistar rats. From the text: Animals were trained to respond according to a modification of the discrete-trial current-threshold procedure of Kornetsky and Esposito (Fed Proc 38:2473-2476, 1979), which has been described in detail previously (Markou and Koob, 1992 Physiol Behav 51:111-119). Briefly, a trial was initiated by the delivery of a non-contingent electrical stimulus. […] The current intensity delivered was adjusted for each animal and typically ranged from 50 to 200 μA. […] After a variable inter-trial interval (7.5-12.5 sec, average of 10 sec), another trial was initiated with the delivery of a non-contingent electrical stimulus. […] Responding during the inter-trial interval delayed the onset of the next trial by 12.5 sec. Current levels were varied in alternating descending and ascending series. A set of three trials was presented for each current intensity. Current intensities were altered in 5 μA steps. In each testing session, four alternating descending-ascending series were presented. […] The overall threshold of the session was defined as the mean of the thresholds for the four individual series. Each testing session was ˜30 min in duration. The latency between the onset of the non-contingent stimulus and a positive response was recorded as the response latency. The response latency for each test session was defined as the mean response latency of all trials during which a positive response occurred. After establishment of stable ICSS reward thresholds, rats were tested in the ICSS procedure once daily except for the spontaneous nicotine withdrawal experiment when rats were tested at time-points according to the experimental design.
Systemic administration experiments. These experiments investigated whether nicotine withdrawal, as measured by elevations in ICSS thresholds, could be precipitated in nicotine-treated rats by systemic administration of an agonist at mGluII receptors (LY314582), an agonist at GABAB receptors (CGP44532), or antagonists at mGlu5 (MPEP), NMDA (MK-801) or AMPA/Kainate (NBQX) glutamate receptors. For each drug tested, rats were trained in the ICSS paradigm until stable baseline responding was achieved, defined as ≦10% variation in thresholds for 3 consecutive days and requiring approximately 14 days of daily testing. […] One group was then prepared with subcutaneous osmotic mini-pumps delivering vehicle and the second group with mini-pumps delivering 9 mg/kg/day nicotine hydrogen tartrate (3.16 mg/kg/day nicotine free base). There was a minimum seven-day interval after mini-pump implantation, during which ICSS reward thresholds continued to be measured daily, before the effect of any systemically administered drug on reward thresholds was evaluated.

Data set [2] deals with male Wistar rats. Briefly: Reward deficits during amphetamine withdrawal (ICSS thresholds, response latencies, body weight). The procedure:
Male Wistar rats (Charles River, Hollister, Calif.) (300-320 g at the start of the experiments) were housed in pairs in a temperature and humidity controlled environment with a 12 hr light/dark cycle. Food and water were available ad libitum. A different set of subjects was used for each experiment. All subjects were treated in accordance with the National Institutes of Health “Guide for the Care and Use of Laboratory Animals,” and the animal facilities and the experimental protocols were in accordance with the Association for the Assessment and Accreditation of Laboratory Animal Care. Most of the behavioral testing was conducted during the light phase of the subjects' light/dark cycle, unless otherwise dictated by the experimental design due to time-course assessment of behavioral parameters. Apparatus The experimental apparatus consisted of 16 Plexiglas chambers (30.5×30×17 cm) (Med Associates Inc., St. Albans, Vt.) encased in sound-attenuating boxes (San Diego Instruments, San Diego, Calif.). Each operant chamber consisted of a stainless steel grid floor and a metal wheel manipulandum located on one wall, which required a 0.2 N force to rotate it a quarter turn. Gold-contact swivel commutators and bipolar leads connected the animals in the stimulation circuit (Plastics One, Roanoke, Va.). Brain stimulation was administered by constant current stimulators (Stimtek 1200, San Diego Instruments, San Diego, Calif.). Surgical Procedure The rats were prepared with 11 mm stainless steel bipolar electrodes (Plastics One; diameter=0.25 mm) in the posterior lateral hypothalamus (AP −0.5 mm from bregma; L±1.7 mm; DV −8.3 mm from dura, with the incisor bar set at 5 mm above the interaural line; Pellegrino et al. 1979 under halothane anaesthesia (1-1.5% halothane/oxygen mixture). Subjects were allowed to recover for at least seven days before any behavioral testing. Half of the electrodes were positioned on the right hemisphere and the other half on the left hemisphere to counterbalance possible brain asymmetries. […] The subjects were initially trained to turn the wheel manipulandum on a fixed ratio 1 schedule of reinforcement. […] The current intensity delivered was adjusted for each animal and typically ranged from 100 to 200 μA. After successful familiarization with this procedure (2 sessions of 100 reinforcers in less than 20 minutes), the rats were gradually trained on a discrete-trial, current-threshold procedure. At the start of each trial rats received a non-contingent electrical stimulus. During the following 7.5 sec, the limited hold, if the subjects responded by turning the wheel manipulandum a quarter turn (positive response) they received a second, contingent stimulus identical to the previous non-contingent stimulus. During a 2 sec period immediately following a positive response, further responses were recorded as extra responses but had no consequence. If no response occurred during the 7.5 sec limited hold period a negative response was recorded. […] Stimulation intensities were varied according to the classical psychophysical method of limits. The subjects received four alternating series of ascending and descending current intensities starting with a descending series. Within each series the stimulus intensity was altered by 5 μA steps between each set of trials (three trials per set). After training in the above procedure, rats were tested until stable baseline thresholds had been achieved L+10% over a 5-day period). […] During the ascending series, the reverse situation defined the threshold. Thus, during each session, four current-thresholds were recorded and the mean of these values was taken as the current-threshold for each subject for each test session. Response Latency: The latency between the onset of the non-contingent stimulus and a positive response was recorded as the response latency. The response latency for each test session was defined as the mean response latency of all trials during which a positive response occurred. […]

For another data set, the system named is Wistar rats. Briefly: Cocaine-induced lowering of ICSS thresholds. Type of data set: in vivo, rat.
[3] abbreviates: MK-801 0.01 mg/kg i.p., Nicotine-treated rats.
The mark [4] stands for this setting: MK-801 0.01 mg/kg i.p., Vehicle-treated rats.
Setting [5] is: MK-801 0.03 mg/kg i.p., Nicotine-treated rats.
The mark [6] stands for this setting: MK-801 0.03 mg/kg i.p., Vehicle-treated rats.
Setting [7] is: MK-801 0.1 mg/kg i.p., Nicotine-treated rats.
Setting [8] is: MK-801 0.1 mg/kg i.p., Vehicle-treated rats.
Setting [9] is: MK-801 0.15 mg/kg i.p., Nicotine-treated rats.
[10] abbreviates: MK-801 0.15 mg/kg i.p., Vehicle-treated rats.
[11] abbreviates: MK-801 0.175 mg/kg i.p., Nicotine-treated rats.
Setting [12] is: MK-801 0.175 mg/kg i.p., Vehicle-treated rats.
The mark [13] stands for this setting: MK-801 0.2 mg/kg i.p., Nicotine-treated rats.
Where [14] appears, read: MK-801 0.2 mg/kg i.p., Vehicle-treated rats.
[15] abbreviates: chronic amphetamine administration.

Where a name gives a salt, the structure may show the parent alone. Read-outs that look alike come from different tables or passages of the source. Bounds are passed on as bounds.

Turning to `C[C@]12N[C@H](Cc3ccccc31)c1ccccc12` [MK-801, (5R,10S)-(+)-5-Methyl-10,11-dihydro-5H-dibenzo(a,d)cyclohepten-5,10-imine hydrogen maleate], the “ICSS Thresholds” value is reported as 98.20 ± 6.1 percentage of baseline in the data set on male Wistar rats [1] (setting [3]); 95.99 ± 3.3 percentage of baseline in the data set with male Wistar rats [1] (setting [4]); 93.09 ± 3.9 percentage of baseline in the data set with male Wistar rats [1] (setting [5]); 92.54 ± 2.6 percentage of baseline in the data set on male Wistar rats [1] (setting [6]); 89.42 ± 3.6 percentage of baseline in the data set with male Wistar rats [1] (setting [7]); 88.48 ± 5.6 percentage of baseline in the data set with male Wistar rats [1] (setting [8]). The “ICSS Thresholds” value with male Wistar rats [1] (setting [9]) was 76.24 ± 4.7 percentage of baseline; in the data set with male Wistar rats [1] (setting [10]), 87.14 ± 4.6 percentage of baseline; in the data set with male Wistar rats [1] (setting [11]), 82.26 ± 3.7 percentage of baseline; in the data set on male Wistar rats [1] (setting [12]), 93.64 ± 3.4 percentage of baseline; in the data set with male Wistar rats [1] (setting [13]), 84.29 ± 3.0 percentage of baseline; with male Wistar rats [1] (setting [14]), 82.47 ± 4.3 percentage of baseline. Moreover, the “ICSS response Latencies” value with male Wistar rats [1] (setting [3]) is given as 95.41 ± 2.3 percentage of baseline; in the data set on male Wistar rats [1] (setting [4]), 100.00 ± 2.5 percentage of baseline; with male Wistar rats [1] (setting [5]) it was 94.64 ± 3.6 percentage of baseline; in the data set on male Wistar rats [1] (setting [6]), 103.14 ± 2.1 percentage of baseline; with male Wistar rats [1] (setting [7]), 106.14 ± 4.4 percentage of baseline; in the data set on male Wistar rats [1] (setting [8]), 98.97 ± 3.9 percentage of baseline. Also, the “ICSS response Latencies” value in the data set on male Wistar rats [1] (setting [9]) is reported as 93.65 ± 3.6 percentage of baseline; with male Wistar rats [1] (setting [10]), 101.60 ± 2.0 percentage of baseline; in the data set with male Wistar rats [1] (setting [11]), 93.56 ± 4.2 percentage of baseline; with male Wistar rats [1] (setting [12]), 119.22 ± 11.9 percentage of baseline; with male Wistar rats [1] (setting [13]) it was 105.14 ± 1.9 percentage of baseline; with male Wistar rats [1] (setting [14]), 119.21 ± 9.4 percentage of baseline. Moreover, the ICSS response Latencies entry with male Wistar rats [1] (MK-801, p<0.05, particularly in control rats) was “did significantly increase response latencies”. The ICSS reward thresholds result in the data set on male Wistar rats [1] (MK-801 0.01-0.2 mg/kg) is “lowered reward thresholds in nicotine-treated and control rats”. Besides, in the data set with male Wistar rats [1] (MK-801, nicotine-treated rats), the “withdrawal-like elevations in reward thresholds” value is recorded as “did not precipitate withdrawal-like elevations in reward thresholds in nicotine-treated rats at any dose tested”. Also, the “Doses causing disruption in performance in the ICSS paradigm” value with male Wistar rats [1] (both groups, rats no longer responded for self-stimulation) is listed as at least 0.2 mg/kg.
For `NS(=O)(=O)c1cccc2c1c([N+](=O)[O-])cc1[nH]c(=O)c(=O)[nH]c12.[Na].[Na]` [NBQX, 2,3-dioxo-6-nitro-1,2,3,4-tetrahydrobenzo(f)quinoxaline-7-sulphonamide disodium], the ICSS response Latencies entry in the data set on male Wistar rats [1] (NBQX 0.01-1 mg/kg) is listed as “had no effect on response latencies in nicotine-treated or control rats at any dose tested”. Also, the ICSS reward thresholds entry was “significantly altered ICSS reward thresholds in nicotine-treated but not control rats” with male Wistar rats [1] (NBQX 0.01-1 mg/kg); “elevated reward thresholds in nicotine-treated rats” with male Wistar rats [1] (NBQX 0.025-0.1 mg/kg, nicotine-treated rats); “did not significantly increase thresholds compared to vehicle treatment” in the data set on male Wistar rats [1] (NBQX 0.5-1 mg/kg, nicotine-treated rats).
With `C[C@H](N)Cc1ccccc1` [amphetamine, d-Amphetamine sulfate], the “reward thresholds during amphetamine withdrawal” value with male Wistar rats [2] (amphetamine-exposed rats treated with vehicle) was “exhibited elevated thresholds at withdrawal hours 12, 36, 42, 60 and 84”. For the same compound, in the data set on male Wistar rats [2] (setting [15]), the body weight result is given as “significantly reduced the body weight of animals” and the response latencies entry is given as “did not significantly differ from those of the saline-exposed rats at any stage during chronic drug treatment”. Also, the reward thresholds entry with male Wistar rats [2] (chronic amphetamine administration, four day treatment, 1-5 mg/kg three times a day) is listed as “significantly elevated thresholds”.
As to `COC(=O)[C@H]1[C@@H](OC(=O)c2ccccc2)C[C@@H]2CC[C@H]1N2C.Cl` [cocaine, Cocaine hydrochloride], the ICSS response Latencies entry in the data set with Wistar rats (cocaine 10 mg/kg) is recorded as “significantly decreased ICSS response latencies”. Moreover, the ICSS Thresholds result in the data set on Wistar rats (cocaine 10 mg/kg i.p.) is “significantly lowered ICSS thresholds”. In the data set on Wistar rats (cocaine 10 mg/kg, at 10 and 40 min after cocaine injection), the “ICSS thresholds, time course” value is “significantly lowered in cocaine-treated rats, pretreated with vehicle”.

The values above are taken from US8354447B2, “mGLU receptors antagonists for treating disorders associated with mGLU receptors including addiction and depression” (The Scripps Research Institute, priority 2002, dated 2013).
